ChEMBL document CHEMBL1240334, “Molecular basis of cyclin-CDK-CKI regulation by reversible binding of an inositol pyrophosphate” (Nat Chem Biol, 2008)
pIC50, pKd, pKi: −log10 of the molar value. The source made the active and inactive calls. The rule behind the calls is not given here.

Legend:
[1] = molecular target: T1, Pho80/Pho85/Pho81 complex (Saccharomyces cerevisiae S288c) (UniProt P17157+P17442+P20052); assay: Binding affinity to Saccharomyces cerevisiae Pho80-Pho85-Pho81-MD complex at 400 uM after 30 mins at 4 degC by electrophoretic mobility shift assay; type: protein-complex assay
[2] = molecular target: T1, Pho80/Pho85/Pho81 complex (Saccharomyces cerevisiae S288c); assay: Inhibition of Saccharomyces cerevisiae Pho80-Pho85-Pho81-MD catalyzed phosphorylation of Pho4 F29I distal-site mutant assessed as increase in substrate concentration; type: protein-complex assay
[3] = molecular target: T1, Pho80/Pho85/Pho81 complex (Saccharomyces cerevisiae S288c); assay: Inhibition of Saccharomyces cerevisiae Pho80-Pho85-Pho81-MD catalyzed phosphorylation of Pho4 S176N distal-site mutant assessed as increase in substrate concentration; type: protein-complex assay
[4] = molecular target: T2, Pho80/Pho85/Pho81 complex (Saccharomyces cerevisiae S288c, UniProt P17157+P17442+P20052); assay: Binding affinity to Saccharomyces cerevisiae Pho80-Pho85-Pho81-MD complex from 2uM to 80 uM after 30 mins by electrophoretic mobility shift assay in presence of 6 mM MgCl2; type: protein-complex assay; conditions: read-out: Kd(app)
T2 sequence (P17157 whole entry, one chain of several): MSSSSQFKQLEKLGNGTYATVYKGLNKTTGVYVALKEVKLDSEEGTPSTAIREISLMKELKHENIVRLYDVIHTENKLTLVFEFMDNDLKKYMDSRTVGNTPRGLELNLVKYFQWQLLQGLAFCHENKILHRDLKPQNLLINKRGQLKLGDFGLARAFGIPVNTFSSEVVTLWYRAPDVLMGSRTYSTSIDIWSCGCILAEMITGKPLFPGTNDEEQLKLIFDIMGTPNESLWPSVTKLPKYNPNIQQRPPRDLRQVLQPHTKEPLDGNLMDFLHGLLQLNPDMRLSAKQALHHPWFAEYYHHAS
T2 sequence (P20052 whole entry, one chain of several): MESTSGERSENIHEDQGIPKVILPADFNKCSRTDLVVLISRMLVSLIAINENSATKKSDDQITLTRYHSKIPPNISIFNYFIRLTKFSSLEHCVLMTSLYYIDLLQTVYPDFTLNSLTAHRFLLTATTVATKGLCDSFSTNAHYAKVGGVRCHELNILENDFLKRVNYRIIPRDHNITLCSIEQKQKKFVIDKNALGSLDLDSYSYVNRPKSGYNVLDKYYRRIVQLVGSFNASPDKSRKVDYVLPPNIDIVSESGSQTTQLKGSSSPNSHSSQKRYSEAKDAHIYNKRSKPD

[5] = molecular target: T3, Pho80/Pho85 (Saccharomyces cerevisiae S288c) (UniProt P17157+P20052); assay: Binding affinity of Pho81-MD S1-segment to Saccharomyces cerevisiae Pho80-Pho85; type: protein-complex assay
[6] = molecular target: T1, Pho80/Pho85/Pho81 complex (Saccharomyces cerevisiae S288c); assay: Displacement of myo-inositol hexakisphosphate from Pho80-Pho85-Pho81-MD complex in Saccharomyces cerevisiae at 0.2 uM 30 mins by electrophoretic mobility shift assay; type: protein-complex assay
[7] = molecular target: T1, Pho80/Pho85/Pho81 complex (Saccharomyces cerevisiae S288c); assay: Displacement of 5-Inositol heptakisphosphate from Pho80-Pho85-Pho81-MD complex in Saccharomyces cerevisiae at 0.2 uM 30 mins by electrophoretic mobility shift assay; type: protein-complex assay
[8] = molecular target: T1, Pho80/Pho85/Pho81 complex (Saccharomyces cerevisiae S288c); assay: Displacement of [32P]-labeled 6-inositol heptakisphosphate from Pho80-Pho85-Pho81-MD complex in Saccharomyces cerevisiae at 400 uM at 4 degC by electrophoretic mobility shift assay; type: protein-complex assay; conditions: tested as the 32P-labelled form
[9] = molecular target: T1, Pho80/Pho85/Pho81 complex (Saccharomyces cerevisiae S288c); assay: Inhibition of Saccharomyces cerevisiae Pho80-Pho85-Pho81-MD catalyzed phosphorylation of Pho4 D175V distal-site mutant; type: protein-complex assay
[10] = molecular target: T1, Pho80/Pho85/Pho81 complex (Saccharomyces cerevisiae S288c); assay: Displacement of [32P]-labeled 4-inositol heptakisphosphate from Pho80-Pho85-Pho81-MD complex in Saccharomyces cerevisiae at 400 uM 30 mins at 30 degC by electrophoretic mobility shift assay; type: protein-complex assay; conditions: tested as the 32P-labelled form
[11] = molecular target: T1, Pho80/Pho85/Pho81 complex (Saccharomyces cerevisiae S288c); assay: Binding affinity to Saccharomyces cerevisiae Pho80-Pho85-Pho81-MD complex at 0.2 uM after 30 mins by electrophoretic mobility shift assay in presence of 6mM MnCl2; type: protein-complex assay; conditions: tested as the 32P-labelled form
[12] = molecular target: T1, Pho80/Pho85/Pho81 complex (Saccharomyces cerevisiae S288c); assay: Binding affinity to Saccharomyces cerevisiae Pho80-Pho85-Pho81-MD complex at 0.2 uM after 30 mins at by electrophoretic mobility shift assay; conditions: tested as the 32P-labelled form
[13] = molecular target: T2, Pho80/Pho85/Pho81 complex; assay: Competitive inhibition of Saccharomyces cerevisiae Pho80-Pho85-Pho81-MD catalyzed phosphorylation of Pho4 assessed as increase in substrate concentration by line-weaverberk plot assay; type: protein-complex assay
[14] = molecular target: T2, Pho80/Pho85/Pho81 complex; assay: Inhibition of Saccharomyces cerevisiae Pho80-Pho85-Pho81-MD catalyzed phosphorylation of Pho4-site 6 peptide; type: protein-complex assay
[15] = molecular target: T1, Pho80/Pho85/Pho81 complex (Saccharomyces cerevisiae S288c); assay: Displacement of [32P]-labeled 4-inositol heptakisphosphate from Pho80-Pho85-Pho81-MD complex in Saccharomyces cerevisiae at 400 uM 30 mins at 4 degC by electrophoretic mobility shift assay; type: protein-complex assay; conditions: tested as the 32P-labelled form
[16] = molecular target: T4, Phosphate system positive regulatory protein PHO81 (Saccharomyces cerevisiae S288c, UniProt P17442); assay: Inhibition of Saccharomyces cerevisiae Pho81-MD-dependent Pho80-Pho85 activity after 30 mins
T4 sequence (P17442 whole entry): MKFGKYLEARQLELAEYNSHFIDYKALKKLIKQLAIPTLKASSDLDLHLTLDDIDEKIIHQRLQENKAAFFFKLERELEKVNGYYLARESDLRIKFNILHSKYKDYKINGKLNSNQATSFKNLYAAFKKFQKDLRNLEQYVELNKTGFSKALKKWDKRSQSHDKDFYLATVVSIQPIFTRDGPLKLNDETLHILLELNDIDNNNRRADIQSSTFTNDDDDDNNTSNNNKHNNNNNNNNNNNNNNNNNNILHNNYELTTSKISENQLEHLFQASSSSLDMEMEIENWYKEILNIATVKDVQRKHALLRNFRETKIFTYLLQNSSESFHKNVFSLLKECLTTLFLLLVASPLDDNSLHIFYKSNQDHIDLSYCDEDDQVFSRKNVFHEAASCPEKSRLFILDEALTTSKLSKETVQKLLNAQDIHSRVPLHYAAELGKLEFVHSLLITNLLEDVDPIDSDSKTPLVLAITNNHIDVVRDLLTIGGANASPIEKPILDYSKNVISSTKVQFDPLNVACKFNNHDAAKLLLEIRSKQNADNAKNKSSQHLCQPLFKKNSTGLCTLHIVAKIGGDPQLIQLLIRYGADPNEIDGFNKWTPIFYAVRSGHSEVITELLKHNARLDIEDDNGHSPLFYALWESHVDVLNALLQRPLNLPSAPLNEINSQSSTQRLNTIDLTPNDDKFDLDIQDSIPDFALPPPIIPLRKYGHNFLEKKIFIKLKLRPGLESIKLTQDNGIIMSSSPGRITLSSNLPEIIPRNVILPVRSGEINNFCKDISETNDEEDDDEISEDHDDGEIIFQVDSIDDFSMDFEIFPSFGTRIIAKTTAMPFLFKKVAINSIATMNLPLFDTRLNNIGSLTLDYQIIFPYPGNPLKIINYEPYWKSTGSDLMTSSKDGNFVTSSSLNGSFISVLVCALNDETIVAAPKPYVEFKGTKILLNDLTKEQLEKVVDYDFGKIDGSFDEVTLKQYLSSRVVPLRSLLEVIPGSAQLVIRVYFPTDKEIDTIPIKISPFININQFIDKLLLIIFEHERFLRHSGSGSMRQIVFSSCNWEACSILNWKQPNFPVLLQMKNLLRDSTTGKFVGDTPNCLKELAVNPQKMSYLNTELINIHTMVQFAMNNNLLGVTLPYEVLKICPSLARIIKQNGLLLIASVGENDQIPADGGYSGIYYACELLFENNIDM

[17] = molecular target: T1, Pho80/Pho85/Pho81 complex (Saccharomyces cerevisiae S288c); assay: Inhibition of Saccharomyces cerevisiae Pho80-Pho85-Pho81-MD catalyzed phosphorylation of Pho4 I22T distal-site mutant assessed as increase in substrate concentration; type: protein-complex assay
[18] = molecular target: T1, Pho80/Pho85/Pho81 complex (Saccharomyces cerevisiae S288c); assay: Displacement of [32P]-labeled 6-inositol heptakisphosphate from Pho80-Pho85-Pho81-MD complex in Saccharomyces cerevisiae at 400 uM at 30 degC by electrophoretic mobility shift assay; type: protein-complex assay; conditions: tested as the 32P-labelled form
[19] = molecular target: T3, Pho80/Pho85 (Saccharomyces cerevisiae S288c); assay: Binding affinity of Pho81-MD S2-segment to Saccharomyces cerevisiae Pho80-Pho85; type: protein-complex assay
[20] = molecular target: T1, Pho80/Pho85/Pho81 complex (Saccharomyces cerevisiae S288c); assay: Binding affinity to Saccharomyces cerevisiae Pho80-Pho85-Pho81-MD complex at 400 uM after 30 mins at 30 degC by electrophoretic mobility shift assay; type: protein-complex assay
[21] = molecular target: T1, Pho80/Pho85/Pho81 complex (Saccharomyces cerevisiae S288c); assay: Inhibition of Saccharomyces cerevisiae Pho80-Pho85-Pho81-MD catalyzed phosphorylation of Pho4 P174L distal-site mutant assessed as increase in substrate concentration; type: protein-complex assay
[22] = molecular target: T4, Phosphate system positive regulatory protein PHO81; assay: Inhibition of Saccharomyces cerevisiae Pho81-MD-MD dependent Pho80-Pho85 activity after 120 mins
[23] = molecular target: T3, Pho80/Pho85 (Saccharomyces cerevisiae S288c); assay: Inhibition of Saccharomyces cerevisiae Pho80-Pho85 at 50 uM in presence of > 10 uM Pho81-MD; type: protein-complex assay
[24] = molecular target: T3, Pho80/Pho85 (Saccharomyces cerevisiae S288c); assay: Inhibition of Saccharomyces cerevisiae Pho80-Pho85 at 100 uM in presence of > 10 uM Pho81-MD; type: protein-complex assay
[25] = molecular target: T1, Pho80/Pho85/Pho81 complex (Saccharomyces cerevisiae S288c); assay: Binding affinity to Saccharomyces cerevisiae Pho80-Pho85-Pho81-MD complex at 0.2 uM after 30 mins by electrophoretic mobility shift assay in presence of 6mM CaCl2; type: protein-complex assay; conditions: tested as the 32P-labelled form
[26] = molecular target: T1, Pho80/Pho85/Pho81 complex (Saccharomyces cerevisiae S288c); assay: Binding affinity to Saccharomyces cerevisiae Pho80-Pho85-Pho81-MD complex at 0.2 uM after 30 mins by electrophoretic mobility shift assay in presence of 6 mM ZnSO4; type: protein-complex assay; conditions: tested as the 32P-labelled form
[27] = molecular target: T4, Phosphate system positive regulatory protein PHO81; assay: Inhibition of Saccharomyces cerevisiae Pho81-MD-MD dependent Pho80-Pho85 activity after 60 mins
[28] = molecular target: T3, Pho80/Pho85 (Saccharomyces cerevisiae S288c); assay: Binding affinity of […]-labeled Pho81-MD to Saccharomyces cerevisiae Pho80-Pho85 by fluorescence binding assay relative to untreated control; type: protein-complex assay
[29] = molecular target: T4, Phosphate system positive regulatory protein PHO81; assay: Inhibition of Saccharomyces cerevisiae Pho81-MD-dependent Pho80-Pho85 activity after 10 mins
[30] = molecular target: T1, Pho80/Pho85/Pho81 complex (Saccharomyces cerevisiae S288c); assay: Binding affinity to Saccharomyces cerevisiae Pho80-Pho85-Pho81-MD complex at 0.2 uM after 30 mins by electrophoretic mobility shift assay in presence of 6mM MgCl2; type: protein-complex assay; conditions: tested as the 32P-labelled form
[31] = molecular target: T1, Pho80/Pho85/Pho81 complex (Saccharomyces cerevisiae S288c); assay: Inhibition of Saccharomyces cerevisiae Pho80-Pho85-Pho81-MD catalyzed phosphorylation of wild type Pho4 distal-site assessed as increase in substrate concentration; type: protein-complex assay

O=P(O)(O)O[C@H]1[C@@H](OP(=O)(O)O)[C@@H](OP(=O)(O)O)[C@H](OP(=O)(O)OP(=O)(O)O)[C@@H](OP(=O)(O)O)[C@@H]1OP(=O)(O)O
Activity [1]: inactive
inhibition [2]: Active
inhibition [3]: Active
pKd [4]: 4.69
Activity [5]: Active
Activity [6]: Active
Activity [7]: Active
Activity [8]: inactive
inhibition [9]: Active
Activity [10]: Active
Activity [11]: Active
Activity [12]: inactive
pKi [13]: 4.72
pIC50 [14]: 4.60
Activity [15]: inactive
pIC50 [16]: 4.85
inhibition [17]: Active
Activity [18]: Active
Activity [19]: inactive
Activity [20]: inactive
inhibition [21]: Active
pIC50 [22]: 4.66
Activity [23]: inactive
Activity [24]: inactive
Activity [25]: inactive
Activity [26]: Active
pIC50 [27]: 4.51
fold change (FC) [28]: 5
pIC50 [29]: 4.64
Activity [30]: Active
inhibition [31]: Active

O=P(O)(O)O[C@H]1[C@@H](OP(=O)(O)O)[C@H](OP(=O)(O)O)[C@@H](OP(=O)(O)OP(=O)(O)O)[C@H](OP(=O)(O)O)[C@H]1OP(=O)(O)O
Activity [28]: inactive
